According to US20120259123A1, “AMINOPYRIDINE COMPOUND” (UBE INDUSTRIES, LTD., priority 2009, published 2012):
Where a name gives a salt, the structure may show the parent alone.

Key:
human EP2 receptor [1] = target: T1, human EP2 receptor (Homo sapiens, UniProt P43116); experiment: Measurement of EP2 agonist activity (cAMP amount in cells); format: cell-based; settings: HEK 293 cells expressing human EP2 receptor, cAMP increase, 30 minutes
T1 construct: purchased Euroscreen S.A. ES-562-M; host or cells: HEK293 cells
T1 sequence (P43116 whole entry): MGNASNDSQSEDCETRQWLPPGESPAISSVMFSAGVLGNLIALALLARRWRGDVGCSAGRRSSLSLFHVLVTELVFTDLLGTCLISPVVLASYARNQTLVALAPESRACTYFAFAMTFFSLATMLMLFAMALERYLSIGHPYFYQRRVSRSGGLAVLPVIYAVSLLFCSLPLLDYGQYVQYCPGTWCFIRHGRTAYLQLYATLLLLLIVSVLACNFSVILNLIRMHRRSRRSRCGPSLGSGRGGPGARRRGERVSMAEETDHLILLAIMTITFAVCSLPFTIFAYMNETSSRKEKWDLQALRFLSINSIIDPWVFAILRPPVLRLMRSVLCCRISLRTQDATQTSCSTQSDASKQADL
Description: Measurement of EP2 agonist activity was carried out according to the method of Wilson et al. (European Journal of Pharmacology, 501, 49 (2004)). […] On the next day, the medium was replaced with serum-free MEM medium containing 3-isobutyl-1-methylxanthine (final concentration: 500 μM) and after culturing for 30 minutes, a test compound dissolved in dimethylsulfoxide was added and the medium was allowed to stand in a carbon dioxide gas incubator. After 30 minutes, an amount of cAMP in the cells was measured with a cAMP Biotrak EIA System kit (available from GE Healthcare Bioscience).

human EP2 receptor [2] = target: T1, human EP2 receptor; experiment: Measurement of EP2 receptor binding affinity ([3H]PGE2 displacement); settings: read-out: Ki value of EP2 receptor binding affinity
Description: (§1) Measurement of EP2 receptor binding affinity was carried out according to the method of Abramovitz et al. (Biochimica et Biophysica Acta, 1483, 285 (2000)). […] The membrane fraction was recovered on glass fiber filter paper (GF/B, available from Whatman PLC) using a cell harvester […], available from Brandel Inc.), and after washing with a buffer solution (10 mM MES-KOH (pH 6.0), 10 mM MgCl2), radioactivity was measured with a liquid scintillation analyzer (2000CA, available from Packard). […] The dissociation constant (Kd value) was calculated by Scatchard analysis.

human EP1 receptor = target: T2, human EP1 receptor (Homo sapiens, UniProt P34995); experiment: Measurement of EP1 receptor binding affinity ([3H]PGE2 displacement); settings: membrane fraction of Chem-1 cells expressing human EP1 receptor, [3H]PGE2 10 nM
T2 sequence (P34995 1-402): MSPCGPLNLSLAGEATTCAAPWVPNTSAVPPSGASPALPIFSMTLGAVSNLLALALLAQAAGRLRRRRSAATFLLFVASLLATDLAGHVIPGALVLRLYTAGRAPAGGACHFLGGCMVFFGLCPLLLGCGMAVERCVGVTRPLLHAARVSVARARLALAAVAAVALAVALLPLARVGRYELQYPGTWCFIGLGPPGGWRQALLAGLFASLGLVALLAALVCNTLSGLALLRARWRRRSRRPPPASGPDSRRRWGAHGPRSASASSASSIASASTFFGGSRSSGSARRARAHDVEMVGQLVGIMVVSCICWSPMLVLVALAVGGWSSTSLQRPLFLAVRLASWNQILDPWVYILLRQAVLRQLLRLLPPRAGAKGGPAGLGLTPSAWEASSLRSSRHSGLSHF
Description: as §1, with “EP1” for “EP2”, “PLC) pretreated with 0.3% polyethyleneimine by” for “PLC)”

Row | Structure (SMILES) | EC50 (human EP2 receptor [1]) [nM] | Ki (human EP2 receptor [2]) [nM] | Ki (human EP1 receptor) [nM]
1 | CCCCC(C)(C)c1ccc(CN(Cc2cccc(NCC(=O)O)n2)S(=O)(=O)c2ccc(F)cc2)s1 [Example 3, (6-{(4-Fluorobenzenesulfonyl)[5-(1,1-dimethylpentyl)thiophen-2-ylmethyl]aminomethyl}pyridin-2-ylamino)acetic acid] | 6 | 1.8 | –
2 | CCC(C)(C)c1ccc(CN(Cc2cccc(NCC(=O)O)n2)S(=O)(=O)c2ccccn2)s1 [Example 4, {6-[(5-tert-Pentylthiophen-2-ylmethyl)(pyridin-2-ylsulfonyl)aminomethyl]pyridin-2-ylamino}acetic acid] | 7 | 3.4 | –
3 | CC1(c2ccc(CN(Cc3cccc(NCC(=O)O)n3)S(=O)(=O)c3cccnc3)cc2)CC1 [Example 5, (6-{[4-(1-Methylcyclopropyl)benzyl](pyridin-3-ylsulfonyl)aminomethyl}pyridin-2-ylamino)acetic acid hydrochloride] | 2.6 | – | –
4 | CCC1(c2ccc(CN(Cc3cccc(NCC(=O)O)n3)S(=O)(=O)c3ccccn3)cc2)CC1 [Example 6, (6-{[4-(1-Ethylcyclopropyl)benzyl](pyridin-2-ylsulfonyl)aminomethyl}pyridin-2-ylamino)acetic acid] | 5.4 | – | –
5 | CCC1(c2ccc(CN(Cc3cccc(NCC(=O)O)n3)S(=O)(=O)c3cccnc3)cc2)CC1 [Example 7, (6-{[4-(1-Ethylcyclopropyl)benzyl](pyridin-3-ylsulfonyl)aminomethyl}pyridin-2-ylamino)acetic acid] | 4.5 | 8.3 | –
6 | CCCCC1(c2ccc(CN(Cc3cccc(NCC(=O)O)n3)S(=O)(=O)c3cccnc3)cc2)CC1 [Example 10, 6-{[4-(1-Butylcyclopropyl)benzyl](pyridin-3-ylsulfonyl)aminomethyl}pyridin-2-ylamino)acetic acid hydrochloride] | 4.2 | 11 | –
7 | CCC1(c2ccc(CN(Cc3cccc(NCC(=O)O)n3)S(=O)(=O)c3ccc(F)cc3)cc2)CC1 [Example 14, (6-{[4-(1-Ethylcyclopropyl)benzyl](4-fluorobenzenesulfonyl)aminomethyl}pyridin-2-ylamino)acetic acid] | 8 | – | –
8 | CCCCC1(c2ccc(CN(Cc3cccc(NCC(=O)O)n3)S(=O)(=O)c3ccncc3)cc2)CC1 [Example 16, (6-{[4-(1-Butylcyclopropyl)benzyl](pyridin-4-ylsulfonyl)aminomethyl}pyridin-2-ylamino)acetic acid] | 6.3 | 6.1 | –
9 | CC(C)(C)c1ccc(CN(Cc2cccc(NCC(=O)O)n2)S(=O)(=O)c2ccccc2)cc1 [Example 21, {6-[(Benzenesulfonyl)(4-tert-butylbenzyl)aminomethyl]pyridin-2-ylamino}acetic acid hydrochloride] | 4.3 | – | –
10 | CC(C)(C)c1ccc(CN(Cc2cccc(NCC(=O)O)n2)S(=O)(=O)c2ccccn2)cc1 [Example 23, {6-[(4-tert-Butylbenzyl)(pyridin-2-ylsulfonyl)aminomethyl]pyridin-2-ylamino}acetic acid hydrochloride] | 2.7 | – | –
11 | CCCC=C(C)c1ccc(CN(Cc2cccc(NCC(=O)O)n2)S(=O)(=O)c2ccccn2)cc1 [Example 24, (6-{[4-(1-Methyl-1-pentenyl)benzyl](pyridin-2-ylsulfonyl)aminomethyl}pyridin-2-ylamino)acetic acid] | 4.5 | – | –
12 | CCC(CC)c1ccc(CN(Cc2cccc(NCC(=O)O)n2)S(=O)(=O)c2cccnc2)cc1 [Example 27, (6-{[4-(1-Ethylpropyl)benzyl](pyridin-3-ylsulfonyl)aminomethyl}pyridin-2-ylamino)-acetic acid] | 6.9 | – | –
13 | CCC(C)(C)c1ccc(CN(Cc2cccc(NCC(=O)O)n2)S(=O)(=O)c2ccccn2)cc1 [Example 28, {6-[(4-tert-Pentylbenzyl)(pyridin-2-ylsulfonyl)aminomethyl]pyridin-2-ylamino}acetic acid hydrochloride] | 6.4 | 9.8 | –
14 | CC(C)(C)Cc1ccc(CN(Cc2cccc(NCC(=O)O)n2)S(=O)(=O)c2ccccn2)cc1 [Example 29, {6-[(4-Neopentylbenzyl)(pyridin-2-ylsulfonyl)aminomethyl]pyridin-2-ylamino}acetic acid hydrochloride] | 5 | – | –
15 | CCCCC[C@H](O)/C=C/[C@H]1[C@H](O)CC(=O)[C@@H]1C/C=C\CCCC(=O)O [PGE2, Prostaglandin E2, reference compound] | – | – | 9

Second part, led by results:

Row | EC50 (human EP2 receptor [1]) [nM] | Ki (human EP2 receptor [2]) [nM] | Structure (SMILES) | Ki (human EP1 receptor) [nM]
16 | 2.7 | 8.3 | CC(C)(C)c1ccc(CN(Cc2cccc(NCC(=O)O)n2)S(=O)(=O)c2ccc(F)cc2)cc1 [Example 30, {6-[(4-tert-Butylbenzyl)(4-fluorobenzenesulfonyl)aminomethyl]pyridin-2-ylamino}-acetic acid hydrochloride] | –
17 | 6.1 | 8.6 | CC(C)(C)c1ccc(CN(Cc2cccc(NCC(=O)O)n2)S(=O)(=O)c2cccc(F)c2)cc1 [Example 31, {6-[(4-tert-Butylbenzyl)(3-fluorobenzenesulfonyl)aminomethyl]pyridin-2-ylamino}-acetic acid hydrochloride] | –
18 | 4.4 | 4.4 | CC(C)(C)c1ccc(CN(Cc2cccc(NCC(=O)O)n2)S(=O)(=O)c2ccc(Cl)cc2)cc1 [Example 33, {6-[(4-tert-Butylbenzyl)(4-chlorobenzenesulfonyl)aminomethyl]pyridin-2-ylamino}-acetic acid hydrochloride] | –
19 | 2.8 | – | CC(C)(C)c1ccc(CN(Cc2cccc(NCC(=O)O)n2)S(=O)(=O)c2cccnc2)cc1 [Example 35, {6-[(4-tert-Butylbenzyl)(pyridin-3-ylsulfonyl)aminomethyl]pyridin-2-ylamino}acetic acid hydrochloride] | –
20 | 2.8 | 5.3 | CCCCC(C)c1ccc(CN(Cc2cccc(NCC(=O)O)n2)S(=O)(=O)c2ccccn2)cc1 (stereo not drawn) [Example 40, (6-{[4-(1-Methylpentyl)benzyl](pyridin-2-ylsulfonyl)aminomethyl}pyridin-2-ylamino)-acetic acid] | –
21 | – | 3.6 | CCCCC(C)(C)c1ccc(CN(Cc2cccc(NCC(=O)O)n2)S(=O)(=O)c2ccncc2)cc1 [Example 43, (6-{[4-(1,1-Dimethylpentyl)benzyl](pyridin-4-ylsulfonyl)aminomethyl}pyridin-2-ylamino)acetic acid] | –
22 | – | 3.3 | CCCCC(C)(C)c1ccc(CN(Cc2cccc(NCC(=O)O)n2)S(=O)(=O)c2cccnc2)cc1 [Example 46, (6-{[4-(1,1-Dimethylpentyl)benzyl](pyridin-3-ylsulfonyl)aminomethyl}pyridin-2-ylamino)acetic acid] | –
23 | – | 6.4 | CCCCC(C)(C)c1ccc(CN(Cc2cccc(NCC(=O)O)n2)S(=O)(=O)c2cccs2)cc1 [Example 48, (6-{[4-(1,1-Dimethylpentyl)benzyl](thiophen-2-ylsulfonyl)aminomethyl}pyridin-2-ylamino)acetic acid] | –
24 | 7 | 2.1 | CCCCC(C)(C)c1ccc(CN(Cc2cccc(NCC(=O)O)n2)S(=O)(=O)c2ccccn2)c(F)c1 [Example 55, (6-{[2-Fluoro-4-(1,1-dimethylpentyl)benzyl](pyridin-2-ylsulfonyl)aminomethyl}pyridin-2-ylamino)acetic acid] | –
25 | 5.5 | – | CCCCC(C)(C)c1ccc(CN(Cc2cccc(NCC(=O)O)n2)S(=O)(=O)c2cccc(F)c2)cc1 [Example 60, (6-{(3-Fluorobenzenesulfonyl)[4-(1,1-dimethylpentyl)benzyl]aminomethyl}pyridin-2-ylamino)acetic acid] | –
